# Where a SMILES comes first, the peptide text is derived from it.
# Tested on: depressor response to spinal cord stimulation
# Assay: Inhibition of depressor response to spinal cord stimulation in the pithed rat
# Type: in vivo, Sprague Dawley rats
# Conditions: for mean reduction (% of maximal depressor response): pithed male Sprague Dawley rat, intravenous, given prior to spinal cord stimulation; for effect when repeated a second time after a second non-antagonized depressor response: all animals examined
# Experimental: Male Sprague Dawley rats (300±25 g) were anesthetized with pentobarbital sodium (50 mg/kg i.p.) and polyethylene catheters were positioned in both femoral veins for the intravenous administration of drugs, such as nociceptin and analogues, and into the left femoral artery in order to measure arterial blood pressure and heart rate.
# The trachea was cannulated with polyethylene tubing and the rat was pithed, ventilated and drug treated as described by Nuki Y. et al. (Effects of Dorsal Rhizotomy on Depressor Response to Spinal Cord Stimulation Mediated by Endogenous Calcitonin Gene-related Peptide in the Pithed Rat. J. Neurosurg. 1993; 79: 899-904).
# Prior administration of nociceptin and related analogs inhibited the depressor response to spinal cord stimulation accordingly: […]
Structure (SMILES),mean reduction (% of maximal depressor response) (dose 0.1 mg/kg),mean reduction (% of maximal depressor response) (dose 0.3 mg/kg),effect when repeated a second time after a second non-antagonized depressor response (pithed rat),"dose-response of inhibition of depressor response (pithed rat, doses 0.1 and 0.3 mg/kg)"
"CC(C)C[C@H](NC(=O)[C@H](CCCCN)NC(=O)[C@H](CCCN=C(N)N)NC(=O)[C@H](C)NC(=O)[C@H](CO)NC(=O)[C@H](CCCCN)NC(=O)[C@H](CCCN=C(N)N)NC(=O)[C@H](C)NC(=O)CNC(=O)[C@@H](NC(=O)[C@H](Cc1ccccc1)NC(=O)CNC(=O)CNC(=O)[C@@H](N)Cc1ccccc1)[C@@H](C)O)C(=O)N[C@@H](C)C(=O)N[C@@H](CC(N)=O)C(=O)N[C@@H](CCC(N)=O)C(=O)O [nociceptin, reference compound]",29 ± 9 % of maximal depressor respons,23 ± 6 % of maximal depressor respons,seen when repeated a second time,–
"CC(=O)N[C@@H](CCCNC(=N)N)C(=O)N[C@@H](Cc1ccc(O)cc1)C(=O)N[C@@H](Cc1ccc(O)cc1)C(=O)N[C@@H](CCCNC(=N)N)C(=O)N[C@@H](Cc1c[nH]c2ccccc12)C(=O)N[C@@H](CCCCN)C(N)=O [Ac--Arg--Tyr--Tyr--Arg--Trp--Lys--NH2, Ac-Arg-Tyr-Tyr-Arg-Trp-Lys-NH2] (Ac-RYYRWK-NH2)",54 ± 12 % of maximal depressor respons,32 ± 7 % of maximal depressor respons,seen when repeated a second time,clear dose-response

# Reference: patent publication US6011006A, “Method of treating hot flushes with hexapeptides” (Novo Nordisk A/S, priority 1998, dated 2000)
